Measured values as given in patent publication US10131652B2, “Pyrimidinyloxy benzene derivatives as herbicides” (E. I. DU PONT DE NEMOURS AND COMPANY, priority 2014, dated 2018).
Read-outs that look alike come from different tables or passages of the source.

How the values were obtained:
Format in all cases: in vivo
[1] = tested on: Brazilian crabgrass (Digitaria horizontalis); assay: Test F pre-/postemergence plant response; conditions: Digitaria horizontalis, pre-emergence, scale 0 to 100, read-out: Plant response rating, Crabgrass, Brazil
How it was run: (§1)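 Visual rating versus untreated controls, 0–100 scale (0 = no effect, 100 = complete control), taken 14–21 d after treatment in greenhouse. Pre: seeds planted in silt loam, soil treated. Post: plants 2–18 cm, 1–4 leaves. Compound formulated in non-phytotoxic solvent plus surfactant.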

[2] = tested on: green foxtail (Setaria viridis); assay: Test F pre-/postemergence plant response; conditions: Setaria viridis, pre-emergence, Preemergence, scale 0 to 100, read-out: Plant response rating, Foxtail, Green
How it was run: as §1

[3] = tested on: wild poinsettia (Euphorbia heterophylla); assay: Test F pre-/postemergence plant response; conditions: Euphorbia heterophylla, pre-emergence, scale 0 to 100, read-out: Plant response rating, Poinsettia, Wild
How it was run: as §1

[4] = tested on: johnsongrass (Sorghum halepense); assay: Test F pre-/postemergence plant response; conditions: Sorghum halepense, pre-emergence, scale 0 to 100, read-out: Plant response rating, Johnsongrass
How it was run: as §1

[5] = tested on: blackgrass (Alopecurus myosuroides); assay: Test E pre-/postemergence plant response; conditions: scale 0 to 100, read-out: Plant response rating, Blackgrass; for pest or weed control at 16 g/ha: 16 g ai/ha; for pest or weed control at 31 g/ha: 31 g ai/ha; for pest or weed control at 62 g/ha: 62 g ai/ha; for pest or weed control at 125 g/ha: 125 g ai/ha
How it was run: (§2)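 Visual scores on a 0–100 scale (100 = complete control) were assigned against untreated controls 7–21 days after treatment in a controlled environment. Compounds, formulated with solvent plus surfactant, were applied to pre-emergence silt-loam sowings or to 1- to 4-leaf plants (2–18 cm) in potting medium.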

kochia (Kochia scoparia) = assay: Test E pre-/postemergence plant response; conditions: Bassia scoparia, scale 0 to 100, read-out: Plant response rating, Kochia; for pest or weed control at 16 g/ha: 16 g ai/ha; for pest or weed control at 31 g/ha: 31 g ai/ha; for pest or weed control at 62 g/ha: 62 g ai/ha; for pest or weed control at 125 g/ha: 125 g ai/ha
How it was run: as §2

wild oat (Avena fatua) = assay: Test E pre-/postemergence plant response; conditions: scale 0 to 100, read-out: Plant response rating, Oat, Wild; for pest or weed control at 16 g/ha: 16 g ai/ha; for pest or weed control at 31 g/ha: 31 g ai/ha; for pest or weed control at 62 g/ha: 62 g ai/ha; for pest or weed control at 125 g/ha: 125 g ai/ha
How it was run: as §2

[6] = tested on: chamomile (scentless chamomile, Matricaria inodora); assay: Test E pre-/postemergence plant response; conditions: Tripleurospermum inodorum, post-emergence, Postemergence, scale 0 to 100, read-out: Plant response rating, Chamomile
How it was run: as §2

[7] = tested on: oilseed rape (Brassica napus); assay: Test E pre-/postemergence plant response; conditions: scale 0 to 100, read-out: Plant response rating, Oilseed Rape; for plant injury at 16 g/ha: 16 g ai/ha; for plant injury at 31 g/ha: 31 g ai/ha; for plant injury at 62 g/ha: 62 g ai/ha; for plant injury at 125 g/ha: 125 g ai/ha
How it was run: as §2

`Fc1cccc(Oc2ncc(Cl)cn2)c1-c1cc(C(F)(F)F)on1` [Compound 168, 5-chloro-2-[2-[5-(trifluoromethyl)-3-isoxazolyl]-3-fluorophenoxy]pyrimidine] showed a pest or weed control at 16 g/ha ([1]; 16 g ai/ha Preemergence) of 65%, a pest or weed control at 31 g/ha ([1]; 31 g ai/ha Preemergence) of 100% and a pest or weed control at 62 g/ha ([1]; 62 g ai/ha Preemergence) of 100%. The pest or weed control at 125 g/ha ([1]; 125 g ai/ha Preemergence) was 100%, the pest or weed control at 16 g/ha ([2]; 16 g ai/ha) was 70% and the pest or weed control at 31 g/ha ([2]; 31 g ai/ha) was 100%. For the same compound, the pest or weed control at 125 g/ha ([2]; 125 g ai/ha) was 100%, the pest or weed control at 62 g/ha [2] was 100% and the pest or weed control at 16 g/ha ([3]; 16 g ai/ha Preemergence) was 0%. For the same compound, the pest or weed control at 31 g/ha ([3]; 31 g ai/ha Preemergence) was 0%, the pest or weed control at 125 g/ha ([3]; 125 g ai/ha Preemergence) was 90% and the pest or weed control at 62 g/ha ([3]; Preemergence) was 50%. For the same compound, the pest or weed control at 16 g/ha ([4]; 16 g ai/ha Preemergence) was 0%, the pest or weed control at 31 g/ha ([4]; 31 g ai/ha Preemergence) was 30% and the pest or weed control at 125 g/ha ([4]; 125 g ai/ha Preemergence) was 100%. For the same compound, the pest or weed control at 62 g/ha ([4]; Preemergence) was 35%, the pest or weed control at 16 g/ha ([5]; post-emergence, Postemergence) was 15% and the pest or weed control at 31 g/ha ([5]; post-emergence, Postemergence) was 25%. The pest or weed control at 62 g/ha ([5]; post-emergence, Postemergence) was 35%, the pest or weed control at 125 g/ha ([5]; post-emergence, Postemergence) was 60% and the pest or weed control at 16 g/ha ([5]; pre-emergence, Preemergence) was 10%. It also gave a pest or weed control at 31 g/ha ([5]; pre-emergence, Preemergence) of 35%, a pest or weed control at 62 g/ha ([5]; pre-emergence, Preemergence) of 100% and a pest or weed control at 125 g/ha ([5]; pre-emergence, Preemergence) of 100%. For the same compound, the pest or weed control at 16 g/ha (kochia (Kochia scoparia); post-emergence, Postemergence) was 80%, the pest or weed control at 31 g/ha (kochia (Kochia scoparia); post-emergence, Postemergence) was 80% and the pest or weed control at 62 g/ha (kochia (Kochia scoparia); post-emergence, Postemergence) was 85%. It also gave a pest or weed control at 125 g/ha (kochia (Kochia scoparia); post-emergence, Postemergence) of 85%, a pest or weed control at 16 g/ha (kochia (Kochia scoparia); pre-emergence, Preemergence) of 35% and a pest or weed control at 31 g/ha (kochia (Kochia scoparia); pre-emergence, Preemergence) of 100%. For the same compound, the pest or weed control at 62 g/ha (kochia (Kochia scoparia); pre-emergence, Preemergence) was 100%, the pest or weed control at 125 g/ha (kochia (Kochia scoparia); pre-emergence, Preemergence) was 100% and the pest or weed control at 16 g/ha (wild oat (Avena fatua); post-emergence, Postemergence) was 5%. The pest or weed control at 31 g/ha (wild oat (Avena fatua); post-emergence, Postemergence) was 10%, the pest or weed control at 62 g/ha (wild oat (Avena fatua); post-emergence, Postemergence) was 40% and the pest or weed control at 125 g/ha (wild oat (Avena fatua); post-emergence, Postemergence) was 65%. For the same compound, the pest or weed control at 16 g/ha (wild oat (Avena fatua); pre-emergence, Preemergence) was 10%, the pest or weed control at 31 g/ha (wild oat (Avena fatua); pre-emergence, Preemergence) was 10% and the pest or weed control at 62 g/ha (wild oat (Avena fatua); pre-emergence, Preemergence) was 35%. For the same compound, the pest or weed control at 125 g/ha (wild oat (Avena fatua); pre-emergence, Preemergence) was 50%, the pest or weed control at 16 g/ha ([6]; 16 g ai/ha) was 5% and the pest or weed control at 31 g/ha ([6]; 31 g ai/ha) was 5%. For the same compound, the pest or weed control at 62 g/ha ([6]; 62 g ai/ha) was 10%, the pest or weed control at 125 g/ha ([6]; 125 g ai/ha) was 10% and the plant injury at 16 g/ha ([7]; post-emergence, Postemergence) was 70%. It also gave a plant injury at 31 g/ha ([7]; post-emergence, Postemergence) of 85%, a plant injury at 62 g/ha ([7]; post-emergence, Postemergence) of 95% and a plant injury at 125 g/ha ([7]; post-emergence, Postemergence) of 100%. It also gave a plant injury at 16 g/ha ([7]; pre-emergence, Preemergence) of 10%, a plant injury at 31 g/ha ([7]; pre-emergence, Preemergence) of 40% and a plant injury at 62 g/ha ([7]; pre-emergence, Preemergence) of 65%. It also gave a plant injury at 125 g/ha ([7]; pre-emergence, Preemergence) of 100%.
